US20200016152A1, “TREATMENT OF DISEASES” (Ampio Pharmaceuticals, Inc., priority 2010, published 2020)

Assays:
[1] = test system: passage 6 human retinal endothelial cells; experiment: ECIS transendothelial electrical resistance (TER), passage 6 retinal endothelial cells; type: cell-based; conditions: for ECIS as compared to untreated cells: monitored 50 hours
Experimental: Assays were performed to determine the effect of MR-DKP (a diketopiperazine wherein R^1 in formula I is the side chain of methionine and R^2 is side chain of arginine) on transendothelial electrical resistance (TER) of passage 6 human retinal endothelial cells (Applied Cell Systems Corporation (exclusive distributor for Applied Cell Biology Research Institute), Kirkland, Wash.). Electrical resistance was measured using the electric cell-substrate impedance sensing (ECIS) system (ECISZθ, obtained from Applied Biophysics) with 8-well multiple electrode plates (8W10E). Each well of the plates was stabilized by adding 250 μl of 10 mM cysteine (Sigma) in sterile water to each well and incubating for 30 minutes at room temperature. The wells were then washed two times with 150 μl of sterile water to remove the cysteine. All wells were then coated with 10 μg/cm^2 collagen by diluting the stock solution (0.5 mg/ml Type IV collagenin 0.25% acetic acid (Sigma) in sterile water and adding 150 μl of the resulting solution to each well. The collagen solution was incubated on the plates at 37° C. for 120 minutes and then removed. The wells were washed two times with 400 μl sterile water to remove the collagen. Next, 400 μl of EGM-2 culture medium (Lonza) was added to each well. The plates were connected to the ECISZθ system and were electrically stabilized. The EGM-2 medium was aspirated and replaced with 400 μl of EGM-2 culture medium containing 100,000 cells per well. The plates were reconnected to the ECISZθ system and incubated for 24 hours in a 37° C. incubator with 5% CO2. The EGM-2 medium was aspirated and replaced with 400 μl of EGM-2 culture medium. The plates were reconnected to the ECISZθ system and incubated for 2 hours in a 37° C. incubator with 5% CO2. Solutions of the test compound in HBSS were prepared and placed in the incubator to equilibrate. The test compound was then added to appropriate wells at the following final concentrations: MR-DKP (50 μM and 100 ECIS (resistance) was monitored for 50 hours.
Example 5 was repeated, except that the diketopiperazine used was YE-DKP (a diketopiperazine wherein R^1 in formula I is the side chain of glutamic acid and R^2 is the side chain of tyrosine). […] The increase was about 20% at its maximum.

[2] = test system: human retinal endothelial cells; experiment: Actin stress fiber formation (rhodamine-phalloidin F-actin staining); type: cell-based; conditions: TNFα 1 ng/ml alone; 15 minutes to 3 hours
Experimental: Passage 12 human retinal endothelial cells (ACBRI 181, Cell Systems Corporation (exclusive distributor for Applied Cell Biology Research Institute), Kirkland, Wash.) were seeded into 16-chamber glass slides coated with 5 μg/cm^2 fibronectin at 5000 cells per well in a total volume of 200 μl of EGM-2 medium (Lonza). The slides were cultured in a 37° C. incubator with 5% CO2 for 48 hours with daily medium changes. Then, the test compounds (DA-DKP, S1P and TNFα), diluted in Hanks Balanced Salt Solution (HBSS; Lonza), were added to give the following final concentrations: DA-DKP (100 μM) (Sigma), TNFα (1 ng/ml) (Sigma), and S1P (1 μM) (Sigma). The slides were incubated with the test compounds for 15 minutes or 3 hours in a 37° C. incubator with 5% CO2. After this incubation, the medium was aspirated, and the cells were fixed using 3.6% formaldehyde in phosphate buffered saline (PBS) for ten minutes at room temperature. All wells were then washed two times with 100 μl PBS. The cells were permeabilized using a 0.1% Triton X-100 in PBS for 5 minutes. All wells were then washed two times with 100 μl PBS, and 50 μl of a 1:40 dilution of rhodamine-phalloidin (Invitrogen) in PBS was added to the cells to stain for F-actin and left on the cells for 20 minutes at room temperature. All wells were then washed two times with 100 μl PBS. Then 100 μl PBS was added to each well and the cells were observed and photographed using an inverted microscope using a rhodamine (ex530/em590) filter.

RhoA = experiment: Rho activation assay (GLISA) in retinal endothelial cells; type: cell-based, human
Experimental: This experiment was performed using a commercially-available Rho activation assay (GLISA) purchased from Cytoskeleton, Denver, Colo., following the manufacturer's protocol. Briefly, passage 8 or 12 human retinal endothelial cells (ACBRI 181, Applied Cell Biology Research Institute, Kirkland, Wash.) were cultured on fibronectin-coated (1 μg/cm^2) 6-well tissue culture plates using EGM-2 culture medium (Lonza) for 24 hours in a 37° C. incubator with 5% CO2 (30,000 cells/well in total volume of 3 ml). Then, the medium was aspirated and replaced with Ultraculture medium supplemented with 0.1% fetal bovine serum, L-glutamine, sodium pyruvate, penicillin/streptomycin and ITSS (insulin, transferrin sodium selenium) (all from Lonza) to serum starve the cells and reduce the background level of RhoA. The cells were cultured for 24 hours in a 37° C. incubator with 5% CO2. Test compounds diluted in HBSS were placed in the incubator to equilibrate before addition to the cells. Then, 150 μl of each test compound was added to the appropriate culture wells, and the plates were incubated in the incubator for an additional 15 minutes. Then, thrombin was added to appropriate wells. After 1 minute, the cells were washed one time with 1.5 ml phosphate buffered saline and were then lysed with 100 μl GLISA lysis buffer supplemented with protease inhibitors. The extracts were scraped, transferred to microcentrifuge tubes and transferred to ice to preserve the active form of RhoA. All extracts were then cleared of debris by spinning at 10,000 rpms for 2 minutes at 4° C. The supernatants were transferred to new tubes and placed back on ice. Aliquots of each extract were removed for the GLISA assay and for protein determinations. All protein concentrations were within 10%, and the extracts were used at the achieved concentrations (equates to 15 total protein per well). The GLISA assay was performed using the reagents supplied in the kit.

[3] = passage 8 cells, 10.0 μM + 0.1 U/ml thrombin
[4] = passage 8 cells, 10.0 μM, no thrombin
[5] = passage 12 cells, 10.0 μM + 0.1 U/ml thrombin
[6] = passage 12 cells, 10.0 μM, no thrombin

In the case of `CSCC[C@@H]1NC(=O)[C@H](CCCNC(=N)N)NC1=O` [MR-DKP], the “ECIS increase at its maximum” value ([1]; 50 μM) is reported as “around 20%”, the “brief elevation in resistance, time window” value ([1]; 50 μM) is reported as 2 to 5 h and the “start of ECIS increase” value ([1]; 50 μM) is reported as “about 15 hours”. For the same molecule, the “time at which ECIS increase became significant” value ([1]; 50 μM) was “about 18 hours”, the “time at which resistance increased again” value ([1]; 50 μM) was “about 30 hours” and the “time at which resistance returned to the levels of the control” value ([1]; 50 μM) was 28 to 29 h. The “time of reaching significance again” value ([1]; 50 μM) was “about 33 hours”, the “persistence of ECIS increase” value ([1]; 50 μM, after the second increase) was “persisted for the remainder of the experiment” and the “ECIS as compared to untreated cells” value ([1]; 50 μM) was “increase in ECIS”. The “ECIS increase at its maximum” value ([1]; 100 μM) was “around 20%”, the “persistence of ECIS increase” value ([1]; 100 μM) was “persisted for the remainder of the experiment” and the “start of ECIS increase” value ([1]; 100 μM) was “about 15 hours”. The “time at which ECIS increase became significant” value ([1]; 100 μM) was “about 18 hours”, the “time of reaching significance again” value ([1]; 100 μM) was “about 33 hours” and the “ECIS as compared to untreated cells” value ([1]; 100 μM) was “increase in ECIS”.

For `O=C(O)CC[C@@H]1NC(=O)[C@H](Cc2ccc(O)cc2)NC1=O` [YE-DKP], the “ECIS as compared to untreated cells” value ([1]; 50 μM) was “did not show a significant increase in ECIS”, the “ECIS increase at its maximum” value ([1]; 100 μM) was “about 20%” and the “persistence of ECIS increase” value ([1]; 100 μM) was “persisted for the remainder of the experiment”. For the same molecule, the “start of ECIS increase” value ([1]; 100 μM) was “about 6 hours”, the “time at which ECIS increase became significant” value ([1]; 100 μM) was “about 12 hours” and the “time at which resistance increased again” value ([1]; 100 μM) was “about 29 hours”. The “time at which resistance returned to the levels of the control” value ([1]; 100 μM) was “around 28 hours”, the “time of reaching significance again” value ([1]; 100 μM) was “about 33 hours” and the “ECIS as compared to untreated cells” value ([1]; 100 μM) was “increase in ECIS”.

With TNFα [reference compound] the “F-actin staining pattern (stress fibers)” value [2] was “stress fibers were seen at all times”.

`O=c1cc(N2CCOCC2)oc2c(-c3ccccc3)cccc12` [PI3 kinase inhibitor LY 294002] was tested, and the “Mean OD (active RhoA)” value (RhoA; [3]) was 0.433, the “Percent Inhibition vs. Thrombin” value (RhoA; [3]) was 27.86% and the “Mean OD (active RhoA)” value (RhoA; [4]) was 0.056. The “Percent Inhibition vs. Untreated Control” value (RhoA; [4]) was 45.32%, the “Mean OD (active RhoA)” value (RhoA; [5]) was 0.685 and the “Percent Inhibition vs. Thrombin” value (RhoA; [5]) was 58.73%. For the same molecule, the “Mean OD (active RhoA)” value (RhoA; [6]) was 0.370 and the “Percent Inhibition vs. Untreated Control” value (RhoA; [6]) was 18.70%.
